Measurements published in article PMC13130965, “An Integrated Approach Combining Regulatory Tests in tg(cyp19a1b:GFP) Zebrafish Embryos to Assess Toxicity, Developmental Effects, and Estrogenic Activity of Chemicals: A Case Study with Bisphenol A Substitutes” (Environmental Science & Technology, 2026).
In brackets after ≈: the same amount, converted by molar mass. Like-named read-outs stand apart in the source and are kept apart here.

How the values were obtained:
[1] = Refined Fish Embryo Acute Toxicity test (FET, OECD TG 236): mortality; type: in vivo, zebrafish (Danio rerio); settings: tg(cyp19a1b:GFP), zebrafish, in vivo, other: waterborne exposure of embryos in test solution, LC50 (96h) experimental (FET test), nominal, brackets 95% CI
Description: (§1) Exposures were carried out in presaturated 24-well plates containing one embryo per well in 2 mL of test solution. The exposure was performed under semistatic conditions, with daily renewal of the test solution. The concentration ranges tested, along with a control with the same percentage of solvent alone, are recapitulated in Table S1. All exposure concentrations are reported as nominal. During the time course of the refined FET tests, embryos were observed after 8 h (coagulation), 24 h (lack of somite formation and nondetachment of the tail), and 48, 72, and 96 h of exposure (nondetection of the heartbeat). […] Moreover, hatching rate and nonlethal developmental effects (i.e., yolk deformity, growth retardation, spontaneous movement, edema, blood tail circulation, heart rate, pigmentation, head and tail/spinal malformations, and hemorrhage) were monitored daily. Tail/spinal malformations included lordosis, kyphosis, scoliosis, and reduced tail length.
(§2) This analysis considered all nonlethal developmental end points monitored in the refined FET assay (see above), except effects on hatching, pigmentation, spontaneous movement, and blood circulation. A teratogenic index (TI) was then calculated as the ratio LC50/EC50.
(§3) Baseline toxicity and experimental FET LC50 values were used to calculate toxic ratios (TR = predicted baseline toxicity LC50/experimental FET LC50). Compounds with TR < 10 were considered as baseline toxicants.

[2] = tested on: tg(cyp19a1b:GFP) zebrafish embryos; experiment: Refined FET: developmental effects / malformations; type: in vivo, zebrafish (Danio rerio); settings: nominal; for EC50: Danio rerio, end of 96 h exposure, read-out: EC50 malformations (cumulative sublethal end points); for LOEC deformity of yolk: at least 10% of embryos affected
Description: as §1, §2

[3] = tested on: cyp19a1b:GFP (brain aromatase) in tg(cyp19a1b:GFP) zebrafish embryos; experiment: EASZY assay (OECD TG 250): GFP induction; type: in vivo, zebrafish (Danio rerio); settings: Danio rerio, 96 h, 96 h; for EC50: read-out: EASZY relative EC50, nominal
Description: The tests were conducted according to OECD TG 250. Newly fertilized cyp19a1b-GFP eggs were transferred to glass crystallizing dishes and exposed for 96 h in a humidified climate chamber (27 ± 2 °C) under semistatic conditions with a total renewal of the test solutions each day. Each condition consisted of three crystallizing dishes, each containing 7 embryos and 15 mL of test medium. Embryos were exposed to a range of nonlethal concentrations of chemicals as determined previously based on the refined FET assays. The tested concentration ranges of bisphenols, along with a control with the same percentage of solvent alone, are summarized in Table S2. All exposure concentrations are reported as nominal. At the end of exposure, transgenic zebrafish embryos were collected for fluorescence imaging to quantify GFP intensity. At the end of the experiments, all living zebrafish embryos were euthanized as described above. […] ICI was added together with bisphenols from 0 to 4 dpf (days post fertilization). […] In all coexposure experiments, the final DMSO concentration was 0.02% (v/v).
For fluorescence imaging, GFP fold induction was expressed as mean ± SEM, and values were compared to the DMSO control using one-way ANOVA followed by Dunnett’s posthoc test. […]

[4] = tested on: zfERs / cyp19a1b:GFP in tg(cyp19a1b:GFP) zebrafish embryos; experiment: EASZY coexposure with ER antagonist ICI 182,780; type: in vivo, zebrafish (Danio rerio); settings: also with 48 h ICI pre-exposure
Description: The tests were conducted according to OECD TG 250. Newly fertilized cyp19a1b-GFP eggs were transferred to glass crystallizing dishes and exposed for 96 h in a humidified climate chamber (27 ± 2 °C) under semistatic conditions with a total renewal of the test solutions each day. Each condition consisted of three crystallizing dishes, each containing 7 embryos and 15 mL of test medium. Embryos were exposed to a range of nonlethal concentrations of chemicals as determined previously based on the refined FET assays. The tested concentration ranges of bisphenols, along with a control with the same percentage of solvent alone, are summarized in Table S2. All exposure concentrations are reported as nominal. At the end of exposure, transgenic zebrafish embryos were collected for fluorescence imaging to quantify GFP intensity. At the end of the experiments, all living zebrafish embryos were euthanized as described above. For coexposure experiments, embryos were exposed to bisphenols in the presence of 1 μM of the ER antagonist ICI 182,780 (ICI). ICI was added together with bisphenols from 0 to 4 dpf (days post fertilization). […] In all coexposure experiments, the final DMSO concentration was 0.02% (v/v).

zebrafish ERβ2 (zfERβ2) = zebrafish ERβ2 (zfERβ2) (Danio rerio, UniProt Q7ZU32); experiment: ZELH-zfERβ2 luciferase reporter gene assay; type: cell-based; settings: read-out: maximal efficacy
Chain of zebrafish ERβ2 (zfERβ2) (Q7ZU32 1-553): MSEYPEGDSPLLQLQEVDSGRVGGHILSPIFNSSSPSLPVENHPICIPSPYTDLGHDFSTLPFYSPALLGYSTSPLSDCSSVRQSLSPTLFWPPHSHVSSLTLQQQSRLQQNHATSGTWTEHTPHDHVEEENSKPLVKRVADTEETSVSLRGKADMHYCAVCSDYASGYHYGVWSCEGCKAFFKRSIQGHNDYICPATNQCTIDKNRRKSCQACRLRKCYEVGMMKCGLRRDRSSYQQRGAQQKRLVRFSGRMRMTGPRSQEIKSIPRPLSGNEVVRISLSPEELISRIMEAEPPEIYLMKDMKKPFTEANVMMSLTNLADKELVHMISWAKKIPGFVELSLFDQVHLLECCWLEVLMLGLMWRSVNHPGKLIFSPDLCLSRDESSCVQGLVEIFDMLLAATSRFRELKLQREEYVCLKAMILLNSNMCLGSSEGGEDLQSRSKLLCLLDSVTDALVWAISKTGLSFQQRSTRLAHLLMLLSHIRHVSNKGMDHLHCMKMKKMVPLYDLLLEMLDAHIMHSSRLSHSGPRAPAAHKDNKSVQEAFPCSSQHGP
Description: The ZELH-zfERs reporter cell line was previously established after a two-step stable transfection of the zebrafish hepatic cell line ZFL with the luciferase gene under the control of ERE (yielding the ZELH cell line that expresses no functional ER) and the zebrafish ER subtype β2 (yielding the ZELH-zfERβ2 cell line). Cells were cultured, exposed to chemicals for 72 h, and measured for luciferase activity exactly as previously described. , For each chemical, serial dilutions were prepared in DMSO and tested in three independent experiments. The final DMSO concentration in the culture medium was always 0.1% v/v. All tested concentrations refer to nominal concentrations.

[5] = cited from earlier work
hERβ [6] = tested on: hERβ; design: method as in Grimaldi et al.; settings: HELN-hERβ; ref Grimaldi et al.; cited from earlier work
[7] = tested on: tg(cyp19a1b:GFP) zebrafish embryos; experiment: Refined Fish Embryo Acute Toxicity test (FET, OECD TG 236): mortality; type: in vivo, zebrafish (Danio rerio); settings: nominal, brackets 95% CI
Description: as §1, §2, §3

Zebrafish embryos = settings: cited from earlier work
Adult Zebrafish = settings: ref Ren et al. (2017); cited from earlier work
hERβ [8] = tested on: hERβ; design: method as in Pelch et al.; settings: HepG2-hERβ; ref Pelch et al.; cited from earlier work
[9] = 120h-exposure, ref Qiu et al. (2021)
[10] = zebrafish embryos, ref Ren et al. (2017)

SMILES: Oc1ccc(C(=C(Cl)Cl)c2ccc(O)cc2)cc1 [BPC-Cl, 4-[2,2-dichloro-1-(4-hydroxyphenyl)ethenyl]phenol]
- LC50 at 96 h [1]: 4.18 µg/mL (≈ 14.9 µM)
- EC50 [2]: 1.28 µg/mL (≈ 4.55 µM)
- LOEC edema [2]: 0.99 mg/L
- LOEC heart rate disruption [2]: 8.89 mg/L
- LOEC hemorrhage [2]: 2.96 mg/L
- LOEC no blood tail circulation [2]: 8.89 mg/L
- LOEC no spontaneous movement [2]: 2.96 mg/L
- LOEC no/Less pigmentation [2]: 8.89 mg/L
- LOEC tail/spinal malformations [2]: 8.89 mg/L
- LOEC deformity of yolk [2]: 0.99 mg/L
- EC50 [3]: 0.015 µg/mL (≈ 0.0534 µM)
- effect of ICI 1 μM on bisphenol-induced GFP [4]: unable to block
- Emax (zebrafish ERβ2 (zfERβ2)): 61%
- Log Kow ([5]; ref ChemSpider): 4.25
- EC50 (hERβ [6]): 46 nM
- maximal efficacy (hERβ [6]): 35%

SMILES: Oc1ccc(Cc2ccc(O)cc2)cc1 [BPF, 4-[(4-hydroxyphenyl)methyl]phenol]
- LC50 at 96 h [1]: 35 µg/mL (≈ 175 µM)
- LC50 (96h) experimental (FET test) [7]: 35.07 [33.99;35.07] mg/L
- EC50 [2]: 17.2 µg/mL (≈ 85.9 µM)
- LOEC edema [2]: 15 mg/L
- LOEC head malformations [2]: 7.5 mg/L
- LOEC heart rate disruption [2]: 60 mg/L
- LOEC hemorrhage [2]: 7.5 mg/L
- LOEC no blood tail circulation [2]: 60 mg/L
- LOEC no spontaneous movement [2]: 60 mg/L
- LOEC tail/spinal malformations [2]: 30 mg/L
- LOEC deformity of yolk [2]: 15 mg/L
- EC50 [3]: 0.407 µg/mL (≈ 2.03 µM)
- Emax (zebrafish ERβ2 (zfERβ2)): 71%
- Log Kow ([5]; ref Adamovsky et al.): 2.91
- EC50 (hERβ [6]): 952 nM
- maximal efficacy (hERβ [6]): 100%
- Hatching success EC50(72h) (Zebrafish embryos; 4-days exposure, ref Moreman et al. (2017)): 14 (0.41) mg/L
- LOEC (body length, GnRH3 neurons, reproductive neuroendocrine-related genes and hormones) (Zebrafish embryos; [9]): 100 µg/L
- NOEC (body length, GnRH3 neurons, reproductive neuroendocrine-related genes and hormones) (Zebrafish embryos; [9]): 1 µg/L
- NOEC (developmental toxicity) (Zebrafish embryos; Wildtype (AB/TL), 1-6 dpf static + 6-9 dpf semistatic, ref Catron et al. (2018; 2019)): 15.3 µM
- LC50(96h) (Zebrafish embryos; Wildtype AB, 120h-exposure, ref Yang et al. (2017)): 10.030 µg/mL (≈ 50.1 µM)
- mortality (Zebrafish embryos; at 20 mg/L, ref Tišler et al. (2016)): 20%
- LC50 (Zebrafish embryos; read-out: LC50(96h), Wildtype AB, 96h-exposure, ref Arrokhman et al. (2023)): 120000 nM
- Edema EC50(48h) (Zebrafish embryos; ref Tišler et al. (2016)): 10.7 (9.4-12.2) mg/L
- Hatching inhibition EC50(72h) (Zebrafish embryos; ref Tišler et al. (2016)): 6.8 (5.8-8.5) mg/L
- Pigmentation EC50(48h) (Zebrafish embryos; ref Tišler et al. (2016)): 1.1 (0.92-1.3) mg/L
- LC50 (96h) literature (Zebrafish embryos; zebrafish embryos, 95% CI, ref Mu et al.): 19.6 [18.47–20.67] mg/L
- LC50 (96h) literature (Zebrafish embryos; zebrafish embryos, parentheses SEM, ref Moreman et al.): 32 (0.55) mg/L
- LC50 (96h) literature (Zebrafish embryos; zebrafish embryos, ref Arrokhman et al.): 24 mg/L (≈ 120 µM)
- LC50 (96h) literature (Zebrafish embryos; zebrafish embryos, ref Gao et al.): 24.5 mg/L (≈ 122 µM)
- LC50 (96h) literature (Zebrafish embryos; zebrafish embryos, ref Gu et al.): 7.40 mg/L (≈ 37 µM)
- Body length LOEC (Zebrafish embryos; [10]): 8 mg/L
- Body length NOEC (Zebrafish embryos; [10]): 6 mg/L
- LC50(24h) (Zebrafish embryos; [10]): 9.13 µg/mL (≈ 45.6 µM)
- LC50(48h) (Zebrafish embryos; [10]): 8.93 µg/mL (≈ 44.6 µM)
- LC50(72h) (Zebrafish embryos; [10]): 8.56 µg/mL (≈ 42.7 µM)
- LC50 (96h) literature (Zebrafish embryos; zebrafish embryos, ref Ren et al.): 7.40 mg/L (≈ 37 µM)
- LC50(24h) (Adult Zebrafish): 10.10 µg/mL (≈ 50.4 µM)
- LC50(48h) (Adult Zebrafish): 9.86 µg/mL (≈ 49.2 µM)
- LC50(72h) (Adult Zebrafish): 9.51 µg/mL (≈ 47.5 µM)
- LC50(96h) (Adult Zebrafish): 9.51 µg/mL (≈ 47.5 µM)

SMILES: C=CCOc1ccc(S(=O)(=O)c2ccc(O)cc2)cc1 [BPS-MAE, 4-(4-prop-2-enoxyphenyl)sulfonylphenol]
- LC50 at 96 h [1]: 20.1 µg/mL (≈ 69.1 µM)
- EC50 [2]: 6.84 µg/mL (≈ 23.6 µM)
- LOEC edema [2]: 33.3 mg/L
- LOEC heart rate disruption [2]: 33.3 mg/L
- LOEC no blood tail circulation [2]: 33.3 mg/L
- LOEC no spontaneous movement [2]: 33.3 mg/L
- LOEC no/Less pigmentation [2]: 33.3 mg/L
- LOEC tail/spinal malformations [2]: 33.3 mg/L
- minimal effective concentration ([3]; read-out: EASZY LOEC (GFP induction), nominal): 0.625 µg/mL
- EC50 [3]: 0.327 µg/mL (≈ 1.13 µM)
- effect of ICI 1 μM on bisphenol-induced GFP [4]: unable to block
- Log Kow ([5]; ref ChemSpider): 3.13
- maximal efficacy (hERβ [8]): 6%
